Source: ChEMBL document CHEMBL4118157, “Efficiency of newly prepared thiazole derivatives against some cutaneous fungi” (2018)
In brackets after ≈: the same amount, converted by molar mass.

Experiments:
[1] = system: Trichophyton mentagrophytes; experiment: Antifungal activity against Trichophyton mentagrophytes after 72 hrs by broth microdilution method; type: functional
Candida albicans [2] = experiment: Antifungal activity against Candida albicans infected in guinea pig skin assessed as recovery from infection at 10 mg/g administered once daily via superficial route for 15 days measured after 30 days post last dose relative to control; type: functional
Nannizzia gypsea [3] = experiment: Antifungal activity against Microsporum gypseum infected in guinea pig skin assessed as recovery from infection at 10 mg/g administered once daily via superficial route for 15 days measured after 30 days post last dose relative to control; type: functional
Candida albicans [4] = experiment: Inhibition of Candida albicans keratinase activity at 2 ppm incubated for 5 days under non-shaking condition and subsequent incubation for 5 days under shaking condition by UV-vis spectrophotometric analysis relative to control
[5] = system: Trichophyton mentagrophytes; experiment: Fungicidal activity against Trichophyton mentagrophytes measured after 96 hrs; type: functional
Candida albicans [6] = experiment: Antifungal activity against Candida albicans after 48 hrs by broth microdilution method; type: functional
[7] = system: Trichophyton mentagrophytes; experiment: Antifungal activity against Trichophyton mentagrophytes infected in guinea pig skin assessed as recovery from infection at 10 mg/g administered once daily via superficial route for 15 days measured after 30 days post last dose relative to control; type: functional
Candida albicans [8] = experiment: Fungicidal activity against Candida albicans measured after 72 hrs; type: functional
Nannizzia gypsea [9] = experiment: Antifungal activity against Microsporum gypseum after 72 hrs by broth microdilution method; type: functional
Nannizzia gypsea [10] = experiment: Inhibition of Microsporum gypseum keratinase activity at 4 ppm incubated for 5 days under non-shaking condition and subsequent incubation for 5 days under shaking condition by UV-vis spectrophotometric analysis relative to control
Nannizzia gypsea [11] = experiment: Fungicidal activity against Microsporum gypseum measured after 96 hrs; type: functional
[12] = system: Trichophyton mentagrophytes; experiment: Inhibition of Trichophyton mentagrophytes keratinase activity at 4 ppm incubated for 5 days under non-shaking condition and subsequent incubation for 5 days under shaking condition by UV-vis spectrophotometric analysis relative to control
Trichophyton rubrum = experiment: Inhibition of Trichophyton rubrum keratinase activity at 10 ug/ml incubated for 5 days under non-shaking condition and subsequent incubation for 5 days under shaking condition by UV-vis spectrophotometric analysis relative to control
Epidermophyton floccosum = experiment: Inhibition of Epidermophyton floccosum keratinase activity at 10 ug/ml incubated for 5 days under non-shaking condition and subsequent incubation for 5 days under shaking condition by UV-vis spectrophotometric analysis relative to control
Trichophyton terrestre = experiment: Inhibition of Trichophyton terrestre keratinase activity at 10 ug/ml incubated for 5 days under non-shaking condition and subsequent incubation for 5 days under shaking condition by UV-vis spectrophotometric analysis relative to control
Nannizzia gypsea [13] = experiment: Inhibition of Microsporum gypseum keratinase activity at 10 ug/ml incubated for 5 days under non-shaking condition and subsequent incubation for 5 days under shaking condition by UV-vis spectrophotometric analysis relative to control
[14] = system: Trichophyton mentagrophytes; experiment: Inhibition of Trichophyton mentagrophytes keratinase activity at MIC incubated for 5 days under non-shaking condition and subsequent incubation for 5 days under shaking condition by UV-vis spectrophotometric analysis relative to control
Nannizzia gypsea [15] = experiment: Inhibition of Microsporum gypseum keratinase activity at MIC incubated for 5 days under non-shaking condition and subsequent incubation for 5 days under shaking condition by UV-vis spectrophotometric analysis relative to control
Candida albicans [16] = experiment: Inhibition of ergosterol biosynthesis in Candida albicans at MIC by spectrophotometric method relative to control; type: functional
Candida albicans [17] = experiment: Inhibition of Candida albicans keratinase activity at MIC incubated for 5 days under non-shaking condition and subsequent incubation for 5 days under shaking condition by UV-vis spectrophotometric analysis relative to control
[18] = system: Trichophyton mentagrophytes; experiment: Inhibition of ergosterol biosynthesis in Trichophyton mentagrophytes at MIC by spectrophotometric method relative to control; type: functional
Nannizzia gypsea [19] = experiment: Inhibition of ergosterol biosynthesis in Microsporum gypseum at MIC by spectrophotometric method relative to control; type: functional
[20] = system: Trichophyton mentagrophytes; experiment: Antifungal activity against Trichophyton mentagrophytes; type: functional
Candida albicans [21] = experiment: Antifungal activity against Candida albicans; type: functional

COc1ccc(/N=N/c2sc(NN=C3CCN(C)CC3)nc2-c2ccccc2)cc1
MIC [1]: 4 µg/mL (≈ 9.51 µM) | Activity (Candida albicans [2]): 100% | Activity (Nannizzia gypsea [3]): 92% | inhibition (Candida albicans [4]): 88.8 to 95% | MFC [5]: 32 µg/mL (≈ 76.1 µM) | MIC (Candida albicans [6]): 2 µg/mL (≈ 4.76 µM) | Activity [7]: 85% | MFC (Candida albicans [8]): 4 µg/mL (≈ 9.51 µM) | MIC (Nannizzia gypsea [9]): 4 µg/mL (≈ 9.51 µM) | inhibition (Nannizzia gypsea [10]): 88.8 to 95% | MFC (Nannizzia gypsea [11]): 8 µg/mL (≈ 19 µM) | inhibition [12]: 88.8 to 95%

CN1CCC(=NNC2=NC(=O)/C(=N\Nc3cccc(Cl)c3)S2)CC1
MIC [1]: 128 µg/mL (≈ 351 µM) | MFC [5]: > 256 µg/mL | MIC (Candida albicans [6]): 32 µg/mL (≈ 87.7 µM) | MFC (Candida albicans [8]): 128 µg/mL (≈ 351 µM) | MIC (Nannizzia gypsea [9]): 64 µg/mL (≈ 175 µM) | MFC (Nannizzia gypsea [11]): 256 µg/mL (≈ 702 µM)

CN1CCC(=NNc2nc(-c3ccccc3)c(/N=N/c3ccccc3)s2)CC1
MIC [1]: 4 µg/mL (≈ 10.2 µM) | inhibition (Candida albicans [4]): 77 to 94% | MFC [5]: 16 µg/mL (≈ 41 µM) | MIC (Candida albicans [6]): 2 µg/mL (≈ 5.12 µM) | MFC (Candida albicans [8]): 4 µg/mL (≈ 10.2 µM) | MIC (Nannizzia gypsea [9]): 4 µg/mL (≈ 10.2 µM) | inhibition (Nannizzia gypsea [10]): 77 to 94% | MFC (Nannizzia gypsea [11]): 16 µg/mL (≈ 41 µM) | inhibition [12]: 77 to 94%

CN(C/C=C/C#CC(C)(C)C)Cc1cccc2ccccc12
inhibition (Trichophyton rubrum): 51.7% | inhibition (Epidermophyton floccosum): 72.3% | inhibition (Trichophyton terrestre): 66% | inhibition (Nannizzia gypsea [13]): 71.9%

Cc1nc(NN=C2CCN(C)CC2)sc1/N=N/c1ccc([N+](=O)[O-])cc1
inhibition [14]: 10.1 to 31.4% | MIC [1]: 128 µg/mL (≈ 343 µM) | inhibition (Nannizzia gypsea [15]): 10.1 to 31.4% | inhibition (INH) (Candida albicans [16]): 28.5% | inhibition (Candida albicans [17]): 10.1 to 31.4% | inhibition (INH) [18]: 21.4% | MFC [5]: > 256 µg/mL | MIC (Candida albicans [6]): 64 µg/mL (≈ 171 µM) | inhibition (INH) (Nannizzia gypsea [19]): 33.1% | MFC (Candida albicans [8]): 256 µg/mL (≈ 686 µM) | MIC (Nannizzia gypsea [9]): 128 µg/mL (≈ 343 µM) | MFC (Nannizzia gypsea [11]): > 256 µg/mL

OC(Cn1cncn1)(Cn1cncn1)c1ccc(F)cc1F [FLUCONAZOLE]
inhibition [14]: 61.3 to 72.9% | MIC [1]: 16 µg/mL (≈ 52.2 µM) | inhibition (Nannizzia gypsea [15]): 61.3 to 72.9% | Activity (Candida albicans [2]): 97% | MIC [20]: 23.9 µg/mL (≈ 78 µM) | inhibition (Candida albicans [17]): 61.3 to 72.9% | Activity (Nannizzia gypsea [3]): 84% | MFC [5]: 64 µg/mL (≈ 209 µM) | MIC (Candida albicans [6]): 8 µg/mL (≈ 26.1 µM) | Activity [7]: 77% | MIC (Candida albicans [21]): 0.34 µg/mL (≈ 1.11 µM) | MFC (Candida albicans [8]): 32 µg/mL (≈ 104 µM) | MIC (Nannizzia gypsea [9]): 8 µg/mL (≈ 26.1 µM) | MFC (Nannizzia gypsea [11]): 64 µg/mL (≈ 209 µM)

COc1ccc(/N=N/c2sc(NN=C3CCN(C)CC3)nc2C)cc1
MIC [1]: 128 µg/mL (≈ 357 µM) | MFC [5]: > 256 µg/mL | MIC (Candida albicans [6]): 64 µg/mL (≈ 179 µM) | MFC (Candida albicans [8]): 128 µg/mL (≈ 357 µM) | MIC (Nannizzia gypsea [9]): 128 µg/mL (≈ 357 µM) | MFC (Nannizzia gypsea [11]): 256 µg/mL (≈ 714 µM)

Cc1nc(NN=C2CCN(C)CC2)sc1/N=N/c1ccc(Cl)cc1Cl
MIC [1]: 64 µg/mL (≈ 161 µM) | MFC [5]: > 256 µg/mL | MIC (Candida albicans [6]): 16 µg/mL (≈ 40.3 µM) | MFC (Candida albicans [8]): 128 µg/mL (≈ 322 µM) | MIC (Nannizzia gypsea [9]): 64 µg/mL (≈ 161 µM) | MFC (Nannizzia gypsea [11]): 128 µg/mL (≈ 322 µM)

Cc1ccc(/N=N/c2sc(NN=C3CCN(C)CC3)nc2-c2ccccc2)cc1
MIC [1]: 4 µg/mL (≈ 9.89 µM) | MFC [5]: 16 µg/mL (≈ 39.6 µM) | MIC (Candida albicans [6]): 2 µg/mL (≈ 4.94 µM) | MFC (Candida albicans [8]): 4 µg/mL (≈ 9.89 µM) | MIC (Nannizzia gypsea [9]): 4 µg/mL (≈ 9.89 µM) | MFC (Nannizzia gypsea [11]): 8 µg/mL (≈ 19.8 µM)

Cc1nc(NN=C2CCN(C)CC2)sc1/N=N/c1ccccc1Cl
MIC [1]: 64 µg/mL (≈ 176 µM) | MFC [5]: > 256 µg/mL | MIC (Candida albicans [6]): 32 µg/mL (≈ 88.2 µM) | MFC (Candida albicans [8]): 128 µg/mL (≈ 353 µM) | MIC (Nannizzia gypsea [9]): 64 µg/mL (≈ 176 µM) | MFC (Nannizzia gypsea [11]): 256 µg/mL (≈ 705 µM)

Cc1ccccc1/N=N/c1sc(NN=C2CCN(C)CC2)nc1C
MIC [1]: 32 µg/mL (≈ 93.4 µM) | MFC [5]: 128 µg/mL (≈ 374 µM) | MIC (Candida albicans [6]): 8 µg/mL (≈ 23.4 µM) | MFC (Candida albicans [8]): 32 µg/mL (≈ 93.4 µM) | MIC (Nannizzia gypsea [9]): 32 µg/mL (≈ 93.4 µM) | MFC (Nannizzia gypsea [11]): 64 µg/mL (≈ 187 µM)
